Laboratory results: article PMC3626286 (Chemical research in toxicology, 2013)
Where “and” joins values, the source holds several entries; their conditions need not be identical. Equal values may be shown once. Entries after “also recorded” stand apart in the source; their conditions may differ. Read-outs that look alike come from different tables or passages of the source.

Experiments:
rat hepatocytes [1] = details: complete inhibition of acyl glucuronidation; cited from earlier work
[2] = cited from earlier work
rat hepatocytes [3] = details: cited from earlier work
[4] = Chemical reactivity with GSH in buffer in the absence of GST; assay type: physicochemical; details: 1 μM, GSH 10 mM, 0.1 M potassium phosphate buffer pH 7.4, 37°C, without GST
rat hepatocytes [5] = assay type: in vitro ADME; details: for fold decrease in concentration on ice versus 37°C: 0°C versus 37°C; for concentration formed at 60 min / fold decrease in concentration on ice versus 37°C: 60 min
[6] = tested on: equine liver glutathione-S-transferase (GST); details: 1 μM, GSH 10 mM, equine liver GST 30 units/ml, pH 7.4, 37°C
[7] = Chemical stability in 0.1 M potassium phosphate buffer; assay type: physicochemical; details: for duration of incubation with no detectable hydrolysis: 1 μM, 0.1 M potassium phosphate buffer pH 7.4, 37°C, data not shown; for chemical stability over the 24 h incubation (in words): buffer, physiological conditions
equine liver GST = details: after 30 min incubation; cited from earlier work
rat hepatocytes [8] = details: cited from earlier work; remark: listed apart in the source
[9] = inhibitor 1 mM co-incubated with MFA
[10] = MFA 100 μM, rat hepatocytes, 37°C
[11] = in vitro in physiological buffer

SMILES: CC(C(=O)O)c1ccccc1 (centres unmarked) [2-phenylpropionic acid]
- decrease in covalent adduct formation (rat hepatocytes [1]): 18.7%

SMILES: C[C@H](C(=O)O[C@@H]1O[C@H](C(=O)O)[C@@H](O)[C@H](O)[C@H]1O)c1ccccc1 [(S)-2-phenylpropionic-1-β-O-acyl glucuronide]
- half-life of degradation (t1/2) [2]: 2.4 h

SMILES: CC1(C)[C@H]2CC[C@]1(C)[C@H](O)C2 [(−)-borneol]
- decrease in MFA-1-O-G formation (rat hepatocytes [3]; inhibitor 1 mM co-incubated with MFA (10 μM, 10 min)): 91%
- inhibition of MFA-GSH formation (rat hepatocytes [3]; [9]): no inhibition

SMILES: Cc1cccc(Nc2ccccc2C(=O)O[C@@H]2O[C@H](C(=O)O)[C@@H](O)[C@H](O)[C@H]2O)c1C [MFA-1-O-G, mefenamic acid-1-O-acyl-glucuronide, reference compound]
- transacylation of GSH (rate of MFA-GSH formation) [4]: 0.02±0.02 nM MFA-GSH/min
- concentration formed at 60 min (rat hepatocytes [5]; [10]): 42200 nM
- formation on ice (in words) (rat hepatocytes [5]; rat hepatocytes on ice (0°C)): nearly undetectable; also recorded: no MFA-1-O-G formation
- reactivity towards GSH (rate of MFA-GSH formation) in the presence of GST [6]: 0.07±0.01 nM MFA-GSH/min
- half life of degradation ([2]; buffer under physiological conditions): ~ 16 h
- half life of degradation ([2]; previously reported, also confirmed in the authors' laboratory): 16.5 h

SMILES: Cc1cccc(Nc2ccccc2C(=O)OP(=O)(O)OC[C@H]2O[C@@H](n3cnc4c(N)ncnc43)[C@H](O)[C@@H]2O)c1C [MFA-AMP, mefenamic acid-acyl-adenylate]
- duration of incubation with no detectable hydrolysis [7]: at least 24 h
- chemical stability over the 24 h incubation (in words) [7]: chemically stable
- transacylation of GSH (rate of MFA-GSH formation) [4]: 0.21±0.02 nM MFA-GSH/min
- fold lower concentration than MFA-GSH (rat hepatocytes [5]; [10]): 19 fold
- maximum concentration formed (rat hepatocytes [5]; [10]): 90.2 nM
- time of maximum concentration (rat hepatocytes [5]; [10]): 20 sec and ~ 20 sec
- concentration at which formation levelled off (rat hepatocytes [5]; rat hepatocytes on ice (0°C)): 94.1 nM
- time to maximum concentration (rat hepatocytes [5]; rat hepatocytes on ice (0°C)): 1 min
- reactivity towards GSH (rate of MFA-GSH formation) in the presence of GST [6]: 1.25±0.28 nM MFA-GSH/min

SMILES: Cc1cccc(Nc2ccccc2C(=O)SCCNC(=O)CCNC(=O)[C@H](O)C(C)(C)COP(=O)(O)OP(=O)(O)OC[C@H]2O[C@@H](n3cnc4c(N)ncnc43)[C@H](O)[C@@H]2OP(=O)(O)O)c1C [MFA-CoA, mefenamic acid-S-acyl-Coenzyme A]
- duration of incubation with no detectable hydrolysis [7]: at least 24 h
- transacylation of GSH (rate of MFA-GSH formation) [4]: 2.38±0.64 nM MFA-GSH/min
- fold lower concentration than MFA-GSH (rat hepatocytes [5]; [10]): 37 fold
- time point until which undetectable (rat hepatocytes [5]; [10]): 4 min
- concentration formed at 60 min (rat hepatocytes [5]; [10]): 45.6 nM
- time point until which undetectable (rat hepatocytes [5]; rat hepatocytes on ice (0°C)): 20 min and 10 min
- concentration formed at 60 min (rat hepatocytes [5]; rat hepatocytes on ice (0°C)): 14.1 nM
- fold decrease in concentration on ice versus 37°C (rat hepatocytes [5]; rat hepatocytes): 3.2 fold
- reactivity towards GSH (rate of MFA-GSH formation) in the presence of GST [6]: 3.38±0.04 nM MFA-GSH/min

SMILES: Cc1cccc(Nc2ccccc2C(=O)SC[C@H](NC(=O)CC[C@H](N)C(=O)O)C(=O)NCC(=O)O)c1C [MFA-GSH, mefenamic acid-S-acyl-glutathione]
- duration of incubation with no detectable hydrolysis [7]: at least 24 h
- chemical stability over the 24 h incubation (in words) [7]: stable
- concentration formed at 60 min (rat hepatocytes [5]; [10]): 1700 nM
- concentration formed at 60 min (rat hepatocytes [5]; rat hepatocytes on ice (0°C)): 83.9 nM
- fold decrease in concentration on ice versus 37°C (rat hepatocytes [5]; rat hepatocytes): 20 fold
- degradation in the presence of equine liver GST (equine liver GST): 10–11%
- metabolic half life (rat hepatocytes [8]): ~ 8 min

SMILES: CC(C)(Oc1ccc(Cl)cc1)C(=O)SCCNC(=O)CCNC(=O)C(O)C(C)(C)COP(=O)(O)OP(=O)(O)OCC1OC(n2cnc3c(N)ncnc32)C(O)C1OP(=O)(O)O (centres unmarked) [clofibric acid-S-acyl-CoA]
- degradation half life [2, 11]: 504 h
- hydrolysis per day [2, 11]: ~ 2 % hydrolysis/day

SMILES: CCCCCCCCCCCC(=O)O [lauric acid]
- inhibition of MFA-CoA formation (rat hepatocytes [3]; [9]): 58%
- inhibition of MFA-GSH formation (rat hepatocytes [3]; [9]): 66%

SMILES: CC(C)(COP(=O)(O)OP(=O)(O)OC[C@H]1O[C@@H](n2cnc3c(N)ncnc32)[C@H](O)[C@@H]1OP(=O)(O)O)[C@@H](O)C(=O)NCCC(=O)NCCSC(=O)Cc1ccccc1 [phenylacetyl-S-acyl-CoA]
- stability after one day of incubation (in words) [2]: completely stable

SMILES: Cc1cc(CC(=O)O[C@@H]2O[C@H](C(=O)O)[C@@H](O)[C@H](O)[C@H]2O)n(C)c1C(=O)c1ccc(Cl)cc1 [zomepirac-1-β-O-acyl glucuronide]
- half-life of degradation (t1/2) [2]: 0.45 h
